Assay results reported in PMC11242382, “Rapid Screening of Chemical Components in Salvia miltiorrhiza with the Potential to Inhibit Skin Inflammation” (International Journal of Molecular Sciences, 2024).

Experiments:
Assay type in all cases: biochemical
HAase [1] = target: T1, HAase (Bos taurus, UniProt Q2YDK3); test: Enzyme kinetics study (Lineweaver–Burk plots); settings: for type of HAase inhibition: Lineweaver–Burk plots; for Kis: from Y-intercept of double inverse curve vs inhibitor concentration
T1 sequence (Q2YDK3 36-553): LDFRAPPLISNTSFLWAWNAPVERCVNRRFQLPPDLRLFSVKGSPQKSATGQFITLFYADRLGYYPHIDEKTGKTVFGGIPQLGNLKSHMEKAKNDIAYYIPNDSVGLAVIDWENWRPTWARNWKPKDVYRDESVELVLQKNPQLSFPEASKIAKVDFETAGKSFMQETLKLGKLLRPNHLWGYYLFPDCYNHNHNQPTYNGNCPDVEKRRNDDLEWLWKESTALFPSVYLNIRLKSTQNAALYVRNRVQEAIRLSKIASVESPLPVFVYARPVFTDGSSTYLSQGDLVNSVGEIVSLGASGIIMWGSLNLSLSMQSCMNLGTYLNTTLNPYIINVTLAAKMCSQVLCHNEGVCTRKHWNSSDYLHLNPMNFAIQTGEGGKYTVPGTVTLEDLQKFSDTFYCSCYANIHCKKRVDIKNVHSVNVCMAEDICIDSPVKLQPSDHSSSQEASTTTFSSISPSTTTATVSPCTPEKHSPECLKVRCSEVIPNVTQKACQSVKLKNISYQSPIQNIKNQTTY
Procedure: We conducted enzyme kinetic studies to explore the inhibitory patterns of the ligands of HAase, employing a method that was previously documented. Based on the earlier HAase inhibition assay, 5 different concentrations of ligands (0, 1/2 × IC50, 1 × IC50, 3/2 × IC50, and 2 × IC50) were reacted with 5 different concentrations of sodium hyaluronate (500, 750, 1000, 1250, and 1500 µM). The reaction rate was monitored within the initial 30 min post-initiation. Grouping the samples by concentration, we derived the corresponding regression equations to construct the Lineweaver–Burk diagram, with the reciprocal of the average reaction rate (1/V) on the ordinate and the reciprocal of the substrate concentration (1/[S]) on the abscissa. From this diagram, we extracted the reciprocal of the transverse intercept (Km) and longitudinal intercept (Vmax) to compute the values of the constants Ki and Kis.

HAase [2] = target: T1, HAase; test: Combined effects of SAB and RA on HAase (median-effect equation, combination index); settings: for Fa (%): SAB-only group
Procedure: (§1) The inhibition assay of the ligands against HAase was performed, following the Elson–Morgan modified method, and the working concentration of the sample was determined to be 0.5 mg/mL [35, 36, 37]. The assays took place in 10 mL centrifuge tubes. Firstly, 0.5 mL of sample solution and 0.5 mL of HAase were added (500 U/mL) to the tube in a 37 °C water bath for 20 min. Then, 0.1 mL of CaCl2 (2.5 mol/L) solution was added to the tube in a 37 °C water bath for 20 min. Next, 0.5 mL of sodium hyaluronate solution (0.5 mg/mL) was added to the tube at 37 °C in a water bath for 40 min. Afterward, we added 0.5 mL of distilled water, 0.1 mL of NaOH solution, and 0.5 mL of acetylacetone (composed of 50 mL of Na2CO3 (1 M) and 3.5 mL of acetylacetone) to the tube. This mixture was kept in the 37 °C water bath for 15 min and then transferred to an ice bath for 10 min, followed by 10 min at room temperature. Afterward, 1 mL of P-DAB and 4.3 mL of ethanol were added to it. The absorbance was measured at 530 nm after allowing the solution to stand for 30 min. The HAase inhibition rate (R) was calculated using the following formula:(1) R=A0−A/A0×100% where A0 is the absorbance of the control group (without the sample, enzyme solution, and sodium hyaluronate as the drug control), and A is the absorbance of the sample group (with the sample, no enzyme solution, and sodium hyaluronate as the blank control); ascorbic acid was the positive control.
The Fa value for each group is Fa (%) = R* (where R* denotes the mean value of inhibition in the administered group). Neutralization graphs (y = log Fa/Fu, x = logD, and y = ax + b) and the neutralization of the two components in monotherapy and combination were calculated based on the neutralization equation Fa/Fu = (D/Dm)^m. In this equation, Fa is the drug effect, Fu = 1 − Fa, D is the drug concentration, Dm is the neutralization concentration, that is, the concentration of the drug when it exerts 50% of its effect, and m is the slope of the equation of the neutralization curve. Dose was calculated using (logDm = −b/a, a = m) and the corresponding parameters of the equation (slope m and correlation coefficient r, etc.). Then, the CI value of the combined effect was calculated according to the following formula:(2) CI=D1/Dx1+D2/Dx2 where D1 and D2 are the concentrations of each of the two drugs causing the x effect when combined, and Dx1 and Dx2 are the concentrations of each of the two drugs causing the x effect when used alone. […] The quantitative effect-relationship curves of the two drugs individually and after combination were plotted using GraphPad Prism V5.0, with the drug concentration as the horizontal coordinate and the Fa value as the vertical coordinate. The data of the combined action group were simulated using Compusyn V1.0 and the neutral effect equation. The Fa-CI curves were plotted using GraphPad Prism V5.0, with the simulated Fa on the horizontal axis and its corresponding CI value on the vertical axis. This comprehensive analysis aimed to thoroughly evaluate the effects of the 2 drugs following their combined action, based on the provided data.

HAase [3] = target: T1, HAase; test: HAase inhibition assay (Elson–Morgan modified method)
Procedure: as §1, with “The HAase inhibition rate (R) was calculated using the following formula:(1) R=A0−A/A0×100% where A0 is the absorbance of the control group (without the sample, enzyme solution, and sodium hyaluronate as the drug control), and A is the absorbance of the sample group (with the sample, no enzyme solution, and sodium hyaluronate as the blank control); ascorbic acid was the positive control.” left out

Compound	type of HAase inhibition (HAase [1])	Kis (HAase [1]) [µM]	m (slope of the neutralization curve equation) (HAase [2]; median-effect equation)	Fa (%) (HAase [2]; 0.006 mg/mL)	Fa (%) (HAase [2]; 0.03 mg/mL)	Fa (%) (HAase [2]; 0.06 mg/mL)	Fa (%) (HAase [2]; 0.15 mg/mL)	Fa (%) (HAase [2]; 0.3 mg/mL)	Dm (median effective concentration) (HAase [2]; median-effect equation, concentration at 50% of effect) [mg/mL]	IC50 against HAase (HAase [3]) [µg/mL]	Inhibition Rate (%) against HAase (HAase [3]; sample concentration 0.5 mg/mL, mean ± SD (n = 3)) [%]
O=C(/C=C/c1ccc(O)c(O)c1)O[C@H](Cc1ccc(O)c(O)c1)C(=O)O [RA, rosmarinic acid]	mixed-type inhibitors	4.60	0.6904	–	–	–	–	–	–	–	–
salvianolic acid B [SAB]	mixed-type inhibitors	0.96	0.6928	8.30	18.07	22.16	40.98	59.08	0.2424	204.15 ± 1.08	68.27 ± 0.71
